Several values for one entry are separate records, joined by “and”; a condition that tells them apart may be missing. Equal values may be shown once.
Tested on: S. Typhimurium PhoP-promoter GFP reporter counterscreen, fluorescence, 4 h
Assay: S. Typhimurium GFP fluorescence dose response in modified counterscreen for PhoP regulon inhibitor project (AID 1981)

Compound | IC50
CCn1cc(C(=O)O)c(=O)c2cc(F)c(N3CCNCC3)cc21 | 0.89 µM
O=C(N/N=C\c1cccc([N+](=O)[O-])c1O)C1COc2ccccc2O1 (configuration not stated) | 96 µM
O=[N+]([O-])c1ccc(O)c(/C=N/Nc2ccccn2)c1 | 12.5 µM
O=C(Oc1c(Cl)cc(Cl)c2cccnc12)c1ccco1 | 17.3 µM
CCn1cc(C(=O)O)c(=O)c2cc(F)c(N3CCN(C(=S)Nc4ccccc4OC)CC3)cc21 | 22 µM
Cc1cc(C(=O)N/N=C/c2cc(Br)cc([N+](=O)[O-])c2O)c2ccccc2n1 | 93.5 µM
CCOC(=O)C[n+]1c(C)sc2ccc(OC)cc21 | 133 µM
O=C(Nc1nc(-c2ccccn2)cs1)c1ccc(Cl)s1 | 27.8 µM
Nc1nc2ccccc2n1Cc1ccc(Cl)c(Cl)c1 | 85.6 µM
NCCc1c(-c2ccccc2)n(-c2ccccc2)c2ccccc12 | 83.7 µM
CCCCCCCCCCOC(=O)C[N+](C)(C)C/C=C(/C)Cl | 83.3 µM
COc1c(N2CCN[C@H](C)C2)c(F)cc2c(=O)c(C(=O)O)cn(C3CC3)c12 | 0.34 µM
CC1CCc2c(N3CCC(O)CC3)c(F)cc3c(=O)c(C(=O)O)cn1c23 (configuration not stated) | 6.56 µM
CN(C)c1ccc(/C=C/c2ccc3ccccc3[n+]2C)cc1 | 26.9 µM
CC[C@H]1OC(=O)C[C@@H](O)[C@H](C)[C@@H](O[C@@H]2O[C@H](C)C[C@H](N(C)C)[C@H]2O)[C@@H](CC=O)C[C@@H](C)C(=O)C=C[C@]2(C)O[C@H]2[C@@H]1C | 10.2 µM
Cc1[nH]n(-c2ccccc2)c(=O)c1/C=N/Nc1nncc(-c2ccccc2)n1 | 22.1 µM
O=C(CN1CCCC1)N/N=C/c1c(O)ccc2ccccc12 | 70.6 µM
C#CCOCCOCCOCCNc1nc(N2CCN(C(=O)CCCCCCCCCCNC(=O)[C@H]([C@@H](C)CC)n3cc(CCCCN=C(N)N)nn3)CC2)nc(N2CCN(C(=O)CCCCCCCCCCNC(=O)[C@H](CCCN=C(N)N)n3cc(C[C@@H](C)CC)nn3)CC2)n1 | 30.6 µM
CCOc1cc(/C=N/N=C(N)N)ccc1OCc1ccc(Cl)cc1 | 56.8 µM
CCn1cc(C(=O)O)c(=O)c2cc(F)c(N3CCN(C(=S)NC(=O)c4ccccc4)CC3)cc21 | 13.8 µM
O=C(NN=C1CCN(Cc2ccccc2)CC1)c1cc2ccccc2cc1O | 128 µM
NC(=NCCCCCCN=C(N)/N=C(\N)Nc1ccc(Cl)cc1)/N=C(\N)Nc1ccc(Cl)cc1 | 9.12 µM and 9.93 µM and 9.09 µM
CC(=O)NC(c1cccs1)c1cc([N+](=O)[O-])c2cccnc2c1O (configuration not stated) | 35.5 µM
CCCCCCCCCn1c2c(c(=N)c3c1CCC3)CCCC2 | 53.8 µM
O=C(/C=C/c1ccco1)Oc1cc(Br)cc(/C=N/NC(=O)c2ccccc2O)c1 | 134 µM
Cc1cc(C(C)(C)CC(C)(C)C)ccc1OCCOCC[N+](C)(C)Cc1ccccc1 | 34.6 µM

Compound | IC50
O=c1[nH]cc(F)c(=O)[nH]1 | 4.17 µM
O=C(N/N=C/c1ccc(Sc2ccccn2)o1)c1cc2ccccc2cc1O | 110 µM
O=C(C[n+]1cc(-c2ccc(Cl)cc2)n2c1CCC2)Nc1nc(-c2ccccc2)cs1 | 95 µM
COC(=O)C1C(O)C(C)C(O)C(C)/C=C\C=C(/C)C(=O)Nc2c(C)c(OC(C)=O)c3c(c2O)C(=O)C(C)=C2OCOC(=C23)/C(C)=C/C(C)(O)C(O)C(C)C1O (configuration not stated) | 23.5 µM
CCCCCCCCCC[n+]1cccc2c3ccccc3ccc21 | 43.8 µM
Cc1ccccc1OCc1n(CC(=O)OC2CC(C)CCC2C(C)C)c2ccccc2[n+]1C (configuration not stated) | 80.1 µM
COc1ccc(/C=N/Nc2cc(C)nc3c(C)cccc23)cc1 | 93.3 µM
COc1cccc(Nc2nc(NCC3CCCO3)c3ccccc3n2)c1 (configuration not stated) | 102 µM
CC[C@H]1OC(=O)[C@H](C)[C@@H](O[C@H]2C[C@@](C)(OC)[C@@H](O)[C@H](C)O2)[C@H](C)[C@@H](O[C@@H]2O[C@H](C)C[C@H](N(C)C)[C@H]2O)[C@](C)(O)C[C@@H](C)CN(C)[C@H](C)[C@@H](O)[C@]1(C)O | 3.63 µM
CCCCOc1ccc(Cc2cnc(N)nc2N)cc1 | 81.3 µM
CCc1ccc(S(=O)(=O)/N=C2/C=C(Sc3ncn[nH]3)C(=O)c3ccccc32)cc1 | 138 µM
CN(C)c1ccc(O)c2c1CC1CC3C(N(C)C)C(=O)C(C(N)=O)=C(O)[C@@]3(O)C(=O)C1=C2O (some centres not stated) | 1.54 µM
OCc1ccc(O)c2ncccc12 | 146 µM
COc1ccc2[nH]c3c(C)c4ccncc4c(C)c3c2c1 | 80.6 µM
CCCNC(=O)c1cn(CC)c2cc(N3CCN(C)CC3)c(F)cc2c1=O | 40.5 µM
CCCCCCCCCCCCCCCC[n+]1cccc2ccccc21 | 19.5 µM
N=C(N)SCc1cn(-c2ccccc2)nc1-c1ccc(Br)cc1 | 36.1 µM
O=C(O)CCN1C(=O)CC(N2C(=O)/C(=C/c3ccc(Cl)cc3)SC2=S)C1=O (configuration not stated) | 22.5 µM
Oc1cccc(/C=N/Nc2ccc(Cl)nn2)c1O | 24.4 µM
O=C1NC(=S)S/C1=C\C=C\c1ccc([N+](=O)[O-])o1 | 29.2 µM
COc1cc([N+](=O)[O-])cc(/C=N\NC(=O)C2COc3ccccc3O2)c1O (configuration not stated) | 141 µM
CN1CCc2c(sc(NC(=O)c3ccc([N+](=O)[O-])o3)c2C(N)=O)C1 | 33.7 µM
O=C(N/N=C/c1ccc([N+](=O)[O-])o1)c1ccc(O)cc1 | 21 µM
CN(O)/C=c1/ccc2c(n1)C(=O)C=CC=2 | 54.1 µM
O=C(Nc1ccccc1)Oc1ccc[nH]c1=O | 80.6 µM
CC(C(=O)NC1C=CS(=O)(=O)C1)N1C(=O)/C(=C/c2ccc(Cl)cc2)SC1=S (configuration not stated) | 141 µM

Compound | IC50
CCOC(=O)N1CCN(C(c2cccnc2)c2ccc3cccnc3c2O)CC1 (configuration not stated) | 57.1 µM
CN1CCN(c2c(F)cc3c(=O)c(C(=O)O)cn4c3c2SCC4)CC1 | 7.73 µM and 6.13 µM
COc1ccc(C(=O)N/N=C/c2sc3ccccc3c2O)cc1 | 109 µM
O=C(N/N=C/c1cc(Cl)ccc1O)c1ccncc1 | 31.2 µM
OCCN1CCN(Cc2cc(Cl)c3cccnc3c2O)CC1 | 104 µM
COC(=O)C(C)NC(=S)N1CCN(c2c(F)cc3c(=O)c(C(=O)O)cn(C4CC4)c3c2OC)CC1C (configuration not stated) | 60.6 µM
O=S(=O)(Nc1cc(Sc2ncn[nH]2)c(O)c2ccccc12)c1ccccc1 | 149 µM
CCn1cc(C(=O)O)c(=O)c2cc(F)c(N3CCN(C(=S)NC(=O)c4ccccc4F)CC3)cc21 | 79.4 µM
CN1CCN(C(c2ccc(Cl)cc2)c2cc(Cl)c3cccnc3c2O)CC1 (configuration not stated) | 32.9 µM
O=C(NC(CO)Cc1ccc([N+](=O)[O-])cc1)C(Cl)Cl (configuration not stated) | 9.48 µM
CCc1ccc(-c2nn(-c3ccccc3)cc2CSC(=N)N)cc1 | 40.4 µM
CCCC(=O)NC(c1ccccc1)c1ccc2cccnc2c1O (configuration not stated) | 32.1 µM
CCn1cc(C(=O)O)c(=O)c2cc(F)c(N3CCN(C(=S)Nc4ccc(OC)cc4)CC3)cc21 | 7.49 µM
C1=C(CCNCc2ccccc2)CCCC1 | 9.75 µM
CC[n+]1c(/C=C/c2ccc(N(C)C)cc2)ccc2ccccc21 | 91.2 µM
C/C(=N\Nc1nc2ccccc2[nH]1)c1ccccn1 | 29.3 µM
CN(C)C1C(=O)C(C(N)=O)=C(O)C2(O)C(=O)C3=C(O)c4c(O)cccc4C(C)(O)C3C(O)C12 (configuration not stated) | 1.35 µM
NC1=NC[C@H](Cc2ccccc2)N1CCCCC1CCCCC1 | 61.1 µM
CC(C)C(=O)NC(c1cccc([N+](=O)[O-])c1)c1ccc2cccnc2c1O (configuration not stated) | 23.3 µM
CCCCOc1ccc(CSC(=N)N)cc1[N+](=O)[O-] | 131 µM
c1ccc2c(NC3=NCCS3)cccc2c1 | 112 µM
Fc1ccccc1CCNCc1ccccc1 | 49.2 µM
O=[N+]([O-])c1cc(CN2CCOCC2)c2cccnc2c1O | 64.3 µM
Cc1nc(N)c(Cc2ccc(Cl)cc2Cl)c(N)n1 | 86.9 µM
Nc1nc2ccccc2n1CCOc1ccccc1Cl | 104 µM

Source: PubChem BioAssay AID1981 (Southern Research Specialized Biocontainment Screening …, 2009)
